Results on one compound are retold here after US10435388B2, “Selective inhibitors of clinically important mutants of the EGFR tyrosine kinase” (CS PHARMATECH LIMITED, priority 2016, dated 2019).

Assay [1] deals with EGFR_d746-750 (Homo sapiens, UniProt P00533, DEL746-750). Nature of the assay: Enzyme assay, IC50 for single mutant EGFR_d746-750 (Caliper). The settings on record: enzyme phosphorylation assay. It counts as biochemical.
For assay [2], the target named is EGFR_T790M/L858R (Homo sapiens, UniProt P00533, L858R/T790M). The experiment in a line: Enzyme assay, IC50 for double-mutant EGFR (EGFR_T790M/L858R) (Caliper). It is filed as biochemical. The settings on record: enzyme phosphorylation assay; read-out: EGFR_L858R/T790 IC50.
Sequence of EGFR_T790M/L858R (P00533 25-1210 T790M/L858R): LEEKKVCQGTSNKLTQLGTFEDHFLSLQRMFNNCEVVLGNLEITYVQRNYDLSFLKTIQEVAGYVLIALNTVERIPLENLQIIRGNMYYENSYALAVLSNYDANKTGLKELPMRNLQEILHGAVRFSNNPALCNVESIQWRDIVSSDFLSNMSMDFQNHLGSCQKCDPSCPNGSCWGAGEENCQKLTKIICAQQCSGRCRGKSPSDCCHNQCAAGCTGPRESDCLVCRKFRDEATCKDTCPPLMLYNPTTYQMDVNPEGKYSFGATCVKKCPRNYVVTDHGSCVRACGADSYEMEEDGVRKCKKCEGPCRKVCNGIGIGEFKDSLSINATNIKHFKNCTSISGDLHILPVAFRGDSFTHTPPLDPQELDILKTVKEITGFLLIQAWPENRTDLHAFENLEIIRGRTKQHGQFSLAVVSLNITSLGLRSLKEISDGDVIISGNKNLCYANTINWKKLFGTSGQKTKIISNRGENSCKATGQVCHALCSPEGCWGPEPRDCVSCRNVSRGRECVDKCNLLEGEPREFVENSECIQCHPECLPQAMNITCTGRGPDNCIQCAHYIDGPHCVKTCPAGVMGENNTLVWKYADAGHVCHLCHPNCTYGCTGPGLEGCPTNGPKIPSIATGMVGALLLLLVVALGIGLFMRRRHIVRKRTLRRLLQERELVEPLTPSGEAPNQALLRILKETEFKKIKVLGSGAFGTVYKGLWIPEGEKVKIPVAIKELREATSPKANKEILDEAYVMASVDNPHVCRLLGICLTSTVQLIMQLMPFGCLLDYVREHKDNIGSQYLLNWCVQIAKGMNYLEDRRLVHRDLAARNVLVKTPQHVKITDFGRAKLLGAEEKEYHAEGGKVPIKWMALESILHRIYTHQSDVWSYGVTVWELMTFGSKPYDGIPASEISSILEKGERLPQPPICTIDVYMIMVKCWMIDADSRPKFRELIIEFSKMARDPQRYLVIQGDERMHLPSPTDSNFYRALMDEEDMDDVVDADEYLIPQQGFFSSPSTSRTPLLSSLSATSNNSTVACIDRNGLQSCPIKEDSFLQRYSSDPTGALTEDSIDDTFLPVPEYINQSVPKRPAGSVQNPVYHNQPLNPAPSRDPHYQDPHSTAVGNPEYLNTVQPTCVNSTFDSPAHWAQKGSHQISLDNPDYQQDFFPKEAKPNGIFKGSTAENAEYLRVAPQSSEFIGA
The subject of assay [3] is NCI-H1975 cells (EGFR L858R/T790 double mutant). The experiment in a line: H1975 inhibition assay (cell proliferation), Method A. The settings on record: cellular proliferation, NCI-H1975 cells, 72 h, CellTiter-Glo (Table 1); read-out: NCI-H1975 IC50 (nM) DM. It counts as cell-based. On the technique in general: In ATP-based viability assays light output follows the ATP content of the culture.

Assay [4] relates to LoVo cells (unmutated EGFR wild type). Nature of the assay: LoVo growth inhibition assay (cell proliferation), Method A. It counts as cell-based. The settings on record: cellular proliferation, 72 h, CellTiter-Glo (Table 1), read-out: LoVo IC50 (nM) WT. The method, then: Cell Proliferation Assays—Method A
LoVo Growth Inhibition Assay (Cell Proliferation)
The rest of the procedure was carried out in the same manner as described for the H1975 cells.

Sequence of EGFR_d746-750 (P00533 with tags, fused parts or gaps DEL746-750): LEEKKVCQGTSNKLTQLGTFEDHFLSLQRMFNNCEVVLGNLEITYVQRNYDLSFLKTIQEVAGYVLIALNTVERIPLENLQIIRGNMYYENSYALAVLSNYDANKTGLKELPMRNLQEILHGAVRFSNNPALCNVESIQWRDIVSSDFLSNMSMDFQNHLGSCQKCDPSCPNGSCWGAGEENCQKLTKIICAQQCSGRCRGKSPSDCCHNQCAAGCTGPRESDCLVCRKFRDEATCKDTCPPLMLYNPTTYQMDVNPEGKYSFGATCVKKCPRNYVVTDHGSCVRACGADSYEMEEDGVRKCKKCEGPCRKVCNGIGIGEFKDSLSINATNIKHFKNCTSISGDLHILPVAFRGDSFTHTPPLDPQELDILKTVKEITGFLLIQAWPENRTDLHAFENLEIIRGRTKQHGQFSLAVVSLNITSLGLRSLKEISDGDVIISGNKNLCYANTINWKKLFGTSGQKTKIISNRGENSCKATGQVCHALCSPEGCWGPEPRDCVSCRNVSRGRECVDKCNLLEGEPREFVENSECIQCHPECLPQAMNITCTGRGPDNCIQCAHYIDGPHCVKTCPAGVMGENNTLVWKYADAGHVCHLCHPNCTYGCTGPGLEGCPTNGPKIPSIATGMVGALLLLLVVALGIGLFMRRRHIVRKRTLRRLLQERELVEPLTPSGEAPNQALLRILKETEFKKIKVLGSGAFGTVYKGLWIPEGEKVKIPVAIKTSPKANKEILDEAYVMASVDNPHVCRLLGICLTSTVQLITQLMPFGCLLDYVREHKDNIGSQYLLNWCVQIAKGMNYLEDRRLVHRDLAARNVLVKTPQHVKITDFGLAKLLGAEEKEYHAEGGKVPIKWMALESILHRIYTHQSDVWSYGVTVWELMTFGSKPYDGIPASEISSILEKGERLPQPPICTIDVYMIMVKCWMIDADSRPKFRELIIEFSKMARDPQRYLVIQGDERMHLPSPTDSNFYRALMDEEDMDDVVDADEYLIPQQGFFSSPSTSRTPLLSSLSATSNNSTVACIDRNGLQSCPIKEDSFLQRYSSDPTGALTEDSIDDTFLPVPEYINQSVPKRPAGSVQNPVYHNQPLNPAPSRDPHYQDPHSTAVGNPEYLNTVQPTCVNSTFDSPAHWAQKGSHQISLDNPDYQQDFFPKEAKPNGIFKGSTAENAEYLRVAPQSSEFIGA

Turning to `C=CC(=O)Nc1cc(Nc2nccc(-c3c[nH]c4ccccc34)n2)c(OC)cc1N(C)CCN(C)C` [AZD-5104], the IC50 amounted to 1.1 nM in assay [1], 1.5 nM in assay [2], 2.2 nM in assay [3] and 3250 nM in assay [4].
